Source: PubChem BioAssay (NCI)
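Cells were grown in 96-well plates and exposed to each compound for 48 hours at five concentrations; endpoints were interpolated linearly between bracketing concentrations, or set to the highest concentration if not reached. GI50 = concentration required for 50% inhibition of growth. TGI: concentration producing complete growth inhibition.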

How the values were obtained:
Assay in all cases: DTP human tumour cell line panel, 48 h
A498 renal = tested on: A498 renal
CAKI-1 renal = tested on: CAKI-1 renal
COLO 205 colon = tested on: COLO 205 colon
HOP-92 NSCLC = tested on: HOP-92 NSCLC
IGROV1 ovarian = tested on: IGROV1 ovarian
KM12 colon = tested on: KM12 colon
M14 melanoma = tested on: M14 melanoma
OVCAR-8 ovarian = tested on: OVCAR-8 ovarian
SF-268 CNS = tested on: SF-268 CNS
SNB-19 CNS = tested on: SNB-19 CNS

## CCOc1ccc(NCC2CC/C(=C\c3ccc(Cl)cc3)C2=O)cc1 (stereo not given)
A498 renal
  TGI: > 95.9 µM
CAKI-1 renal
  TGI: > 73.8 µM
COLO 205 colon
  TGI: > 52.5 µM
HOP-92 NSCLC
  TGI: 41.6 µM
IGROV1 ovarian
  TGI: > 50.6 µM
KM12 colon
  TGI: > 44 µM
M14 melanoma
  TGI: 50.6 µM
OVCAR-8 ovarian
  TGI: > 52.8 µM
SF-268 CNS
  TGI: > 86.7 µM
SNB-19 CNS
  TGI: > 100 µM

## COc1cc2cnc(-c3ccccc3)cc2cc1OC
A498 renal
  TGI: 21.2 µM
CAKI-1 renal
  TGI: 62.4 µM
COLO 205 colon
  TGI: 58.5 µM
HOP-92 NSCLC
  TGI: 65.9 µM
IGROV1 ovarian
  TGI: 49.5 µM
KM12 colon
  TGI: 61.2 µM
M14 melanoma
  TGI: > 100 µM
OVCAR-8 ovarian
  TGI: > 100 µM
SF-268 CNS
  TGI: > 100 µM
SNB-19 CNS
  TGI: > 100 µM

## CCOC(=O)c1ccc(N(C=O)CCC(=O)CCl)cc1
A498 renal
  GI50: 1.47 µM
  TGI: 5.87 µM
CAKI-1 renal
  GI50: 0.528 µM
  TGI: 2.05 µM
COLO 205 colon
  GI50: 0.315 µM
  TGI: 0.838 µM
HOP-92 NSCLC
  GI50: 0.064 µM
  TGI: 0.794 µM
IGROV1 ovarian
  GI50: 0.537 µM
  TGI: 8.33 µM
KM12 colon
  GI50: 0.4 µM
  TGI: 15.4 µM
M14 melanoma
  GI50: 0.0553 µM
  TGI: 1.5 µM
OVCAR-8 ovarian
  GI50: 0.0998 µM
  TGI: 11.3 µM
SF-268 CNS
  GI50: 0.411 µM
  TGI: 4.95 µM
SNB-19 CNS
  GI50: 2.37 µM
  TGI: 22.4 µM

## O=C1NC(=O)[C@@H](c2c[nH]c3ccccc23)[C@@H]1c1c[nH]c2ccccc12
A498 renal
  GI50: > 25 µM
  TGI: > 25 µM
CAKI-1 renal
  GI50: > 25 µM
  TGI: > 25 µM
COLO 205 colon
  GI50: > 25 µM
  TGI: > 25 µM
HOP-92 NSCLC
  GI50: 21.2 µM
  TGI: > 25 µM
IGROV1 ovarian
  GI50: > 25 µM
  TGI: > 25 µM
KM12 colon
  GI50: > 25 µM
  TGI: > 25 µM
M14 melanoma
  GI50: > 25 µM
  TGI: > 25 µM
OVCAR-8 ovarian
  GI50: > 25 µM
  TGI: > 25 µM
SF-268 CNS
  GI50: > 25 µM
  TGI: > 25 µM
SNB-19 CNS
  GI50: > 25 µM
  TGI: > 25 µM

## OCCn1cc(-c2cnc3nnn(Cc4ccc5ncccc5c4)c3n2)cn1
A498 renal
  GI50: 34.3 µM
  TGI: > 100 µM
CAKI-1 renal
  GI50: > 100 µM
  TGI: > 100 µM
COLO 205 colon
  GI50: > 100 µM
  TGI: > 100 µM
HOP-92 NSCLC
  GI50: 13 µM
  TGI: > 100 µM
IGROV1 ovarian
  GI50: > 100 µM
  TGI: > 100 µM
KM12 colon
  GI50: > 100 µM
  TGI: > 100 µM
M14 melanoma
  GI50: > 100 µM
  TGI: > 100 µM
OVCAR-8 ovarian
  GI50: > 100 µM
  TGI: > 100 µM
SF-268 CNS
  GI50: > 100 µM
  TGI: > 100 µM
SNB-19 CNS
  GI50: > 100 µM
  TGI: > 100 µM

## COc1ccc(/C=N\NC(=O)c2ccc3nc(-c4ccc(Cl)cc4)[nH]c3c2)cc1
A498 renal
  GI50: 2.45 µM
  TGI: 9.87 µM
CAKI-1 renal
  GI50: 2.1 µM
  TGI: 6.03 µM
COLO 205 colon
  GI50: 1.94 µM
  TGI: 5.43 µM
HOP-92 NSCLC
  GI50: 1.52 µM
  TGI: 4.11 µM
IGROV1 ovarian
  GI50: 1.65 µM
  TGI: 3.97 µM
KM12 colon
  GI50: 3.03 µM
  TGI: 9.58 µM
M14 melanoma
  GI50: 2.41 µM
  TGI: 7.76 µM
OVCAR-8 ovarian
  GI50: 3.19 µM
  TGI: 11.5 µM
SF-268 CNS
  GI50: 2.09 µM
  TGI: 5.1 µM
SNB-19 CNS
  GI50: 3.13 µM
  TGI: 7.95 µM

## CN(C)c1ccc2cc3ccc(N(C)C)cc3nc2c1
A498 renal
  TGI: 9.01 µM
CAKI-1 renal
  TGI: 13.5 µM
COLO 205 colon
  TGI: 22.8 µM
HOP-92 NSCLC
  TGI: 20 µM
IGROV1 ovarian
  TGI: 17.3 µM
KM12 colon
  TGI: 1.85 µM
M14 melanoma
  TGI: 8.15 µM
OVCAR-8 ovarian
  TGI: 5.62 µM
SF-268 CNS
  TGI: 6.26 µM
SNB-19 CNS
  TGI: 3.95 µM
